# Test system: RS4;11 cells
# Assay: RS4;11 cell proliferation assay (CellTiter-Glo)
# Format: cell-based
# Conditions: Homo sapiens, 48 h compound treatment, read-out: RS4;11 (nM) CTG IC50
# Experimental: Cell proliferation was measured using the CellTiter-Glo@ Luminescent Cell Viability Assay. The assay involved the addition of a single reagent (CellTiter-Glo® Reagent) directly to cells cultured in serum-supplemented medium. RS4;11 (ATC, CRL-1873) cells were cultured according to ATCC recommendations and were seeded at 50,000 cells per well. NCI-H1963 cells (ATCC CRL-5982) were cultured according to ATCC recommendations and seeded at 12,000 cells per well.
# Each compound evaluated was prepared as a DMSO stock solution (10 mM). Compounds were tested in duplicate on each plate, with a 10-point serial dilution curve (1:3 dilution). Compound treatment (1.0 μL) was added from the compound dilution plate to the cell plate. The highest compound concentration was 10 μM (final), with a 0.1% final DMSO concentration. Plates were then incubated at 37° C., 5% CO2. After 48 h of compound treatment for RS4;11 or 72 h for NCI-H1963, cell plates were equilibrated at rt for approximately 30 mins. An equi-volume amount of CellTiter-Glo@ Reagent (40 μL) was added to each well. Plates were mixed for 2 mins on an orbital shaker to induce cell lysis and then incubated at RT for 10 mins to stabilize the luminescent signal. Luminescence was recorded using a Envision plate reader according to CellTiter-Glo protocol. IC50 of each compound was calculated using GraphPad Prism by nonlinear regression analysis.
row,SMILES,IC50 [nM]
1,"CC1(C)CCC(CN2CCN(c3ccc(C(=O)NS(=O)(=O)c4ccc(NCC5CC6(COC6)C5)c([N+](=O)[O-])c4)c(Oc4cnc5[nH]ccc5c4)c3)CC2)=C(C23CC(Cl)(C2)C3)C1 [Example 2, 2-(1H-pyrrolo[2,3-b]pyridin-5-yl-oxy)-N-(4-(2-oxaspiro[3.3]heptan-6-yl-methylamino)-3-nitrophenylsulfonyl)-4-(4-((2-(3-chlorobicyclo[1.1.1]pentan-1-yl)-4,4-dimethylcyclohex-1en-yl)methyl)piperazin-1-yl)benzamide]",< 100
2,"CC1(C)CCC(CN2CCN(c3ccc(C(=O)NS(=O)(=O)c4ccc(NCCN5CCC6(CCOC6)CC5)c([N+](=O)[O-])c4)c(Oc4cnc5[nH]ccc5c4)c3)CC2)=C(C23CC(Cl)(C2)C3)C1 [Example 3, 2-((1H-pyrrolo[2,3-b]pyridin-5-yl)oxy)-N-((4-((2-(2-oxa-8-azaspiro[4.5]decan-8-yl)ethyl)amino)-3-nitrophenyl)sulfonyl)-4-(4-((2-(3-chlorobicyclo[1.1.1]pentan-1-yl)-4,4-dimethylcyclohex-1-en-1-yl)methyl)piperazin-1-yl)benzamide]",100 to 1000
3,"CC1(C)CCC(CN2CCN(c3ccc(C(=O)NS(=O)(=O)c4ccc(NCCN5CC6(CCOCC6)C5)c([N+](=O)[O-])c4)c(Oc4cnc5[nH]ccc5c4)c3)CC2)=C(C23CC(Cl)(C2)C3)C1 [Example 4, 2-(1H-pyrrolo[2,3-b]pyridin-5-yloxy)-N-(4-(2-(7-oxa-2-azaspiro[3.5]nonan-2-yl)ethylamino)-3-nitrophenylsulfonyl)-4-(4-((2-(3-chlorobicyclo[1.1.1]pentan-1-yl)-4,4-dimethylcyclohex-1-enyl)methyl)piperazin-1-yl)benzamide]",100 to 1000
4,"CC1(C)CCC(CN2CCN(c3ccc(C(=O)NS(=O)(=O)c4ccc(NCC5CC6(CCOCC6)C5)c([N+](=O)[O-])c4)c(Oc4cnc5[nH]ccc5c4)c3)CC2)=C(C23CC(Cl)(C2)C3)C1 [Example 5, 2-((1H-pyrrolo[2,3-b]pyridin-5-yl)oxy)-N-((4-(((7-oxaspiro[3.5]nonan-2-yl)methyl)amino)-3-nitrophenyl)sulfonyl)-4-(4-((2-(3-chlorobicyclo[1.1.1]pentan-1-yl)-4,4-dimethylcyclohex-1-en-1-yl)methyl)piperazin-1-yl)benzamide]",100 to 1000
5,"CC1(C)CCC(CN2CCN(c3ccc(C(=O)NS(=O)(=O)c4ccc(OC5COC6(CC6)C5)c([N+](=O)[O-])c4)c(Oc4cnc5[nH]ccc5c4)c3)CC2)=C(C23CC(Cl)(C2)C3)C1 (stereo not shown) [Example 6, 2-((1H-pyrrolo[2,3-b]pyridin-5-yl)oxy)-N-((4-((4-oxaspiro[2.4]heptan-6-yl)oxy)-3-nitrophenyl)sulfonyl)-4-(4-((2-(3-chlorobicyclo[1.1.1]pentan-1-yl)-4,4-dimethylcyclohex-1-en-1-yl)methyl)piperazin-1-yl)benzamide]",> 1000
6,"CC1(C)CCC(CN2CCN(c3ccc(C(=O)NS(=O)(=O)c4ccc(OCCN5CC6(COC6)C5)c([N+](=O)[O-])c4)c(Oc4cnc5[nH]ccc5c4)c3)CC2)=C(C23CC(Cl)(C2)C3)C1 [Example 7, 2-(1H-pyrrolo[2,3-b]pyridin-5-yloxy)-N-(4-(2-(2-oxa-6-azaspiro[3.3]heptan-6-yl)ethoxy)-3-nitrophenylsulfonyl)-4-(4-((2-(3-chlorobicyclo[0.1.1]pentan-1-yl)-4,4-dimethylcyclohex-1-enyl)methyl)piperazin-1-yl)benzamide]",> 1000
7,"CC1(C)CCC(CN2CCN(c3ccc(C(=O)NS(=O)(=O)c4ccc(OCC5CC6(COC6)C5)c([N+](=O)[O-])c4)c(Oc4cnc5[nH]ccc5c4)c3)CC2)=C(C23CC(Cl)(C2)C3)C1 [Example 8, 2-(1H-pyrrolo[2,3-b]pyridin-5-yloxy)-N-(4-(2-oxaspiro[3.3]heptan-6-ylmethoxy)-3-nitrophenylsulfonyl)-4-(4-((2-(3-chlorobicyclo[1.1.1]pentan-1-yl)-4,4-dimethylcyclohex-1-enyl)methyl)piperazin-1-yl)benzamide]",100 to 1000
8,"CN1CCC(CNc2ccc(S(=O)(=O)NC(=O)c3ccc(N4CCN(CC5=C(C67CC(C)(C6)C7)CC(C)(C)CC5)CC4)cc3Oc3cnc4[nH]ccc4c3)cc2[N+](=O)[O-])CC1 [Example 12, 2-((1H-pyrrolo[2,3-b]pyridin-5-yl)oxy)-4-(4-((4,4-dimethyl-2-(3-methylbicyclo[1.1.1]pentan-1-yl)cyclohex-1-en-1-yl)methyl)piperazin-1-yl)-N-((4-(((1-methylpiperidin-4-yl)methyl)amino)-3-nitrophenyl)sulfonyl)benzamide]",< 100
9,"CN(C)[C@H]1CC[C@H](Nc2ccc(S(=O)(=O)NC(=O)c3ccc(N4CCN(CC5=C(C67CC(C)(C6)C7)CC(C)(C)CC5)CC4)cc3Oc3cnc4[nH]ccc4c3)cc2[N+](=O)[O-])CC1 [Example 14, 2-((1H-pyrrolo[2,3-b]pyridin-5-yl)oxy)-4-(4-((4,4-dimethyl-2-(3-methylbicyclo[1.1.1]pentan-1-yl)cyclohex-1-en-1-yl)methyl)piperazin-1-yl)-N-((4-(((1r,4r)-4-(dimethylamino)cyclohexyl)amino)-3-nitrophenyl)sulfonyl)benzamide]",< 100
10,"CC1(C)CCC(CN2CCN(c3ccc(C(=O)NS(=O)(=O)c4ccc(NCCN5CCOCC5)c([N+](=O)[O-])c4)c(Oc4cnc5[nH]ccc5c4)c3)CC2)=C(C23CC(C)(C2)C3)C1 [Example 21, 2-(1H-pyrrolo[2,3-b]pyridin-5-yloxy)-4-(4-((4,4-dimethyl-2-(3-methylbicyclo[1.1.1]pentan-1-yl)cyclohex-1-enyl)methyl)piperazin-1-yl)-N-(4-(2-morpholinoethylamino)-3-nitrophenylsulfonyl)benzamide]",100 to 1000
11,"CC1(C)CCC(CN2CCN(c3ccc(C(=O)NS(=O)(=O)c4ccc(OCC5CCOCC5)c([N+](=O)[O-])c4)c(Oc4cnc5[nH]ccc5c4)c3)CC2)=C(C23CC(C)(C2)C3)C1 [Example 22, 2-(1H-pyrrolo[2,3-b]pyridin-5-yloxy)-4-(4-((4,4-dimethyl-2-(3-methylbicyclo[1.1.1]pentan-1-yl)cyclohex-1-enyl)methyl)piperazin-1-yl)-N-(3-nitro-4-((tetrahydro-2H-pyran-4-yl)methoxy)phenylsulfonyl)benzamide]",< 100
12,"CCC12CC(C3=C(CN4CCN(c5ccc(C(=O)NS(=O)(=O)c6ccc(NCC7(F)CCN(C)CC7)c([N+](=O)[O-])c6)c(Oc6cnc7[nH]ccc7c6)c5)CC4)CCC(C)(C)C3)(C1)C2 [Example 24, 2-(1H-pyrrolo[2,3-b]pyridin-5-yloxy)-4-(4-((2-(3-ethylbicyclo[1.1.1]pentan-1l-yl)-4,4-dimethylcyclohex-1l-enyl)methyl)piperazin-1-yl)-N-(4-((4-fluoro-1l-methylpiperidin-4-yl)methylamino)-3-nitrophenylsulfonyl)benzamide]",< 100
13,"CN1CCC(F)(CNc2ccc(S(=O)(=O)NC(=O)c3ccc(N4CCN(CC5=C(C67CC(C(F)(F)F)(C6)C7)CC(C)(C)CC5)CC4)cc3Oc3cnc4[nH]ccc4c3)cc2[N+](=O)[O-])CC1 [Example 29, 2-((1H-pyrrolo[2,3-b]pyridin-5-yl)oxy)-4-(4-((4,4-dimethyl-2-(3-(trifluoromethyl)bicyclo[1.1.1]pentan-1-yl)cyclohex-1-en-1-yl)methyl)piperazin-1-yl)-N-((4-(((4-fluoro-1-methylpiperidin-4-yl)methyl)amino)-3-nitrophenyl)sulfonyl)benzamide]",< 100
14,"CC1(C)CCC(CN2CCN(c3ccc(C(=O)NS(=O)(=O)c4ccc(NCC5CC6(CCOCC6)C5)c([N+](=O)[O-])c4)c(Oc4cnc5[nH]ccc5c4)c3)CC2)=C(C23CC(C(F)F)(C2)C3)C1 [Example 37, 2-((1H-pyrrolo[2,3-b]pyridin-5-yl)oxy)-N-((4-(((7-oxaspiro[3.5]nonan-2-yl)methyl)amino)-3-nitrophenyl)sulfonyl)-4-(4-((2-(3-(difluoromethyl)bicyclo[1.1.1]pentan-1-yl)-4,4-dimethylcyclohex-1-en-1-yl)methyl)piperazin-1-yl)benzamide]",< 100
15,"O=C(NS(=O)(=O)c1ccc(NCC2CCOCC2)c([N+](=O)[O-])c1)c1ccc(N2CCN(CC3=C(C45CC(C(F)F)(C4)C5)CC4(CCC4)CC3)CC2)cc1Oc1cnc2[nH]ccc2c1 [Example 42, 2-((1H-pyrrolo[2,3-b]pyridin-5-yl)oxy)-4-(4-((6-(3-(difluoromethyl)bicyclo[1.1.1]pentan-1-yl)spiro[3.5]non-6-en-7-yl)methyl)piperazin-1-yl)-N-((3-nitro-4-(((tetrahydro-2H-pyran-4-yl)methyl)amino)phenyl)sulfonyl)benzamide]",< 100
16,"CC12CC(C3=C(CN4CCN(c5ccc(C(=O)NS(=O)(=O)c6ccc(NCC7(F)CCOCC7)c([N+](=O)[O-])c6)c(Oc6cnc7[nH]ccc7c6)c5)CC4)CCC4(CCC4)C3)(C1)C2 [Example 43, 2-((1H-pyrrolo[2,3-b]pyridin-5-yl)oxy)-N-((4-(((4-fluorotetrahydro-2H-pyran-4-yl)methyl)amino)-3-nitrophenyl)sulfonyl)-4-(4-((6-(3-methylbicyclo[1.1.1]pentan-1-yl)spiro[3.5]non-6-en-7-yl)methyl)piperazin-1-yl)benzamide]",100 to 1000

# Reference: patent publication US11344546B2, “Benzamide compounds” (Recurium IP Holdings, LLC, priority 2018, dated 2022)
